Assay results reported in ChEMBL document CHEMBL4007427, “Inhibition of the Aldehyde Dehydrogenase 1/2 Family by Psoralen and Coumarin Derivatives” (J Med Chem, 2017).

Tests used:
[1] = target: T1, Retinaldehyde dehydrogenase 3 (Homo sapiens) (UniProt P47895); assay: (§1) Activation of full length recombinant human ALDH1A3 expressed in Escherichia coli BL21(DE3) preincubated for 2 mins followed by addition of propionaldehyde as substrate in presence of NAD+ by spectrophotometric method relative to control
T1 sequence (whole entry): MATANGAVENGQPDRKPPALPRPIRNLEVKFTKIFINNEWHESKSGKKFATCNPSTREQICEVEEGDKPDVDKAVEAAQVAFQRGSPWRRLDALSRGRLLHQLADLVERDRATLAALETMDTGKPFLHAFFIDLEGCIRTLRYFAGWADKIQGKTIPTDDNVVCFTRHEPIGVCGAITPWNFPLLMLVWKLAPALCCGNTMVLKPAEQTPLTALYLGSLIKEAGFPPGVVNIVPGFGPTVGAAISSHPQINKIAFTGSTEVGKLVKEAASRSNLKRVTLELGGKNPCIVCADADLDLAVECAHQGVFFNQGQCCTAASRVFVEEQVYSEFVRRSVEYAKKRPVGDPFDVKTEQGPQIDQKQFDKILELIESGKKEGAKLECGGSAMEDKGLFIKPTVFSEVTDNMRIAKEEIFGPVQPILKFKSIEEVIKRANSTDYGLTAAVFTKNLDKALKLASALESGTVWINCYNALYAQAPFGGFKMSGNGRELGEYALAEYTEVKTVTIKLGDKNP

[2] = target: T2, Aldehyde dehydrogenase X, mitochondrial (Homo sapiens, UniProt P30837)
T2 sequence (P30837 whole entry): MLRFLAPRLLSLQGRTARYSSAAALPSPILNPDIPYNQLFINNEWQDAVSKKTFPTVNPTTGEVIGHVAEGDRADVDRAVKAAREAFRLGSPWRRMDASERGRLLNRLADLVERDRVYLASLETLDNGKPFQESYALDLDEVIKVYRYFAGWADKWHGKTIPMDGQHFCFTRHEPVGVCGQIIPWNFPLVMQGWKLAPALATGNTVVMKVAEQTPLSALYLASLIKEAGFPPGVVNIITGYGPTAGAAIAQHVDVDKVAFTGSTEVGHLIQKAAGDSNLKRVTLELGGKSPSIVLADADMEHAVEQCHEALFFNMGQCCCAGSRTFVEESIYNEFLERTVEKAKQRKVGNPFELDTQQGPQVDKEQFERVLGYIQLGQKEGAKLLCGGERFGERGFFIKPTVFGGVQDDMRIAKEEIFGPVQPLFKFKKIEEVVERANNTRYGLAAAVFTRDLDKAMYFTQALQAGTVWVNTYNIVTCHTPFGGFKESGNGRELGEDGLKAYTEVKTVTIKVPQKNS
Description: Inhibition of full length recombinant human ALDH1B1 expressed in Escherichia coli TunerDE3 assessed as reduction in dehydrogenase activity by measuring NAD(P)H level preincubated for 2 mins followed by addition of propionaldehyde as substrate in presence of NAD+ by spectrophotometric method

Retinal dehydrogenase 2 = target: T3, Retinal dehydrogenase 2 (Homo sapiens, UniProt O94788)
T3 sequence (O94788 whole entry): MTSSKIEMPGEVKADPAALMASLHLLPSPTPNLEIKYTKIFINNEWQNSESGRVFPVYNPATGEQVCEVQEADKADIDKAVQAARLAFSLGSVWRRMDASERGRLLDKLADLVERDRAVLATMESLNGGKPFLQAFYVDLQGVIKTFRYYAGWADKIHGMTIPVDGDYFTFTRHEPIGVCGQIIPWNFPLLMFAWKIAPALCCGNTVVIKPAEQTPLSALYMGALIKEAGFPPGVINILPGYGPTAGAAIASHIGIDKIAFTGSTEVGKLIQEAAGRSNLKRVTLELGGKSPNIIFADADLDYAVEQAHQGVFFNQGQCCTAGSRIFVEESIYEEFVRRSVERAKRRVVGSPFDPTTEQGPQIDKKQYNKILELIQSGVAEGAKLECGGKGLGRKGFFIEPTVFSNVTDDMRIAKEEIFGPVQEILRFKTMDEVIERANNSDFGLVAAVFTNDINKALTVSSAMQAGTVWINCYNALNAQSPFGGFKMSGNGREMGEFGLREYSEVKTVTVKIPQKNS
Description: Inhibition of full length recombinant human ALDH1A2 expressed in Escherichia coli BL21(DE3) assessed as reduction in dehydrogenase activity by measuring NAD(P)H level preincubated for 2 mins followed by addition of propionaldehyde as substrate in presence of NAD+ by spectrophotometric method

[3] = target: T4, Aldehyde dehydrogenase 1A1 (Homo sapiens) (UniProt P00352); assay: as §1, with “Inhibition” for “Activation”, “ALDH1A1” for “ALDH1A3”, “BL21(DE3) assessed as reduction in dehydrogenase activity by measuring NAD(P)H level” for “BL21(DE3)”
T4 sequence (whole entry): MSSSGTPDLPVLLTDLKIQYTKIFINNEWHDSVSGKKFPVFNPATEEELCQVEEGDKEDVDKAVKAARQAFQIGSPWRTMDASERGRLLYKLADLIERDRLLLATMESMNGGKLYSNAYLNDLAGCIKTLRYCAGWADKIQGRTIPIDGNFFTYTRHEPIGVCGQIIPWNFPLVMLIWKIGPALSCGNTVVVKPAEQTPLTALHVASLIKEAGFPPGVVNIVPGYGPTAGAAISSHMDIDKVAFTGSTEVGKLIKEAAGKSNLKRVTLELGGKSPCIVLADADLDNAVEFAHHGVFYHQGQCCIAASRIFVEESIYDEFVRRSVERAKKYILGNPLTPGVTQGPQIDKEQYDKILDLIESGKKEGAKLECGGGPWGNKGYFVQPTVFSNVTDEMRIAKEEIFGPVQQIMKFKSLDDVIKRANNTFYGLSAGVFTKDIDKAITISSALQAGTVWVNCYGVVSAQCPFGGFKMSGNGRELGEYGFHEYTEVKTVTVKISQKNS

[4] = target: T1, Retinaldehyde dehydrogenase 3 (Homo sapiens); assay: as §1, with “Inhibition” for “Activation”, “BL21(DE3) assessed as reduction in dehydrogenase activity by measuring NAD(P)H level” for “BL21(DE3)”
[5] = target: T5, Aldehyde dehydrogenase 1A1 (Homo sapiens, UniProt P00352); assay: Uncompetitive inhibition of full length recombinant human ALDH1A1 expressed in Escherichia coli BL21(DE3) using propionaldehyde as substrate in presence of varying levels NAD+ by Lineweaver-Burk plot analysis
T5 sequence (P00352 whole entry): T4 sequence (whole entry)

[6] = target: T6, Retinaldehyde dehydrogenase 3 (Homo sapiens, UniProt P47895)
T6 sequence (P47895 whole entry): T1 sequence (whole entry)
Description: Inhibition of full length recombinant human ALDH1A3 expressed in Escherichia coli BL21(DE3) assessed as reduction in dehydrogenase activity by measuring NAD(P)H level preincubated for 2 mins followed by addition of propionaldehyde as substrate in presence of NAD+ by spectrophotometric method

[7] = target: T7, Aldehyde dehydrogenase X, mitochondrial (Homo sapiens) (UniProt P30837); assay: as §1, with “Inhibition” for “Activation”, “ALDH1B1” for “ALDH1A3”, “TunerDE3 assessed as reduction in dehydrogenase activity by measuring NAD(P)H level” for “BL21(DE3)”
T7 sequence (whole entry): T2 sequence (P30837 whole entry)

[8] = target: T8, Retinal dehydrogenase 2 (Homo sapiens) (UniProt O94788); assay: as §1, with “Inhibition” for “Activation”, “ALDH1A2” for “ALDH1A3”, “BL21(DE3) assessed as reduction in dehydrogenase activity by measuring NAD(P)H level” for “BL21(DE3)”
T8 sequence (whole entry): T3 sequence (O94788 whole entry)

**Q.** What does the source list for C/C(=N\O)c1cc2cc(Br)ccc2oc1=O?
**A.** %max [1]: 200%; IC50 [2]: Not Active; IC50 (Retinal dehydrogenase 2): Not Active

**Q.** Cc1oc2cc3oc(=O)c4c(c3cc2c1C)CCC4 was tested. Which Imax [3] did it give?
**A.** Its Imax is 50 to 60%.

**Q.** And the Imax [4]?
**A.** The Imax was 50 to 60%.

**Q.** Cc1oc2cc3oc(=O)c(CCC(=O)N4CCCCC4)c(C)c3cc2c1C was tested. Which Ki [5] did it give?
**A.** Its Ki is 170 nM.

**Q.** What does the source list for COC(=O)C(C)Oc1ccc2c(C)cc(=O)oc2c1 (stereo not drawn)?
**A.** IC50 [2]: Not Active; IC50 (Retinal dehydrogenase 2): Not Active; IC50 [6]: Not Active

**Q.** What does the source list for Cc1oc2cc3oc(=O)c(C)c(C)c3cc2c1C?
**A.** Imax [7]: 60%; Imax [8]: 60%

**Q.** CCCc1cc(=O)oc2cc3oc(C)c(C)c3cc12 was tested. Which %max [1] did it give?
**A.** Its %max is 200%.

**Q.** With CCCc1c(C)c2cc3c(C)coc3cc2oc1=O as the molecule, how does the Imax [3] read?
**A.** The Imax was 60%.
